Data: patent publication US20220363649A1, “ORGANIC COMPOUNDS” (Rutgers, The State University of New Jersey, priority 2018, published 2022)

Key:
human S1R = target: T1, human S1R (Homo sapiens, UniProt Q99720); experiment: Human S1R radiolabeled binding assay, human jurkat cell membranes, [3H]-pentazocine; conditions: human membranes (Compounds 10-76)
T1 construct: experimentally determined in human jurkat cell membranes using 15.0 nM; endogenous in cells; host or cells: human Jurkat cell membranes
Description: The binding process was terminated by addition of cold buffer. Then, the mixture was filtered and washed with cold buffer. Radioactivity was identified using the TopCount NTX liquid scintillation counter (PerkinElmer, Waltham, Mass.).
(§1) Radiolabeled binding assays were conducted using two different species.

human S2R = target: T2, human S2R (Homo sapiens, UniProt Q5BJF2); experiment: Human S2R radiolabeled binding assay, Jurkat Clone E6-1 cell membranes, [3H] DTG; conditions: human membranes (Compounds 10-76)
T2 construct: performed using Jurkat cell line Clone E6-1 cells with 0.025 μM; endogenous in cells; host or cells: Jurkat Clone E6-1 cell membranes
Description: The radiolabeled binding assay of the human S1R and S2R were performed using human jurkat cell membranes according to the protocol previously reported (Ganapathy, et al., 1999, J. Pharmacol. Exp. Ther. 289:251-60).
DTG as radioligand. […] The cells were incubated in RPMI 1640 Medium with 10% FBS, 100 U/ml penicillin and […] streptomycin. After incubation, the cells were suspended in 5 mM potassium phosphate buffer (pH=7.6). The membrane protein concentration was controlled at 5 mg/mL. The collected membrane protein was incubated with ligands in potassium phosphate buffer for 1 hour at room temperature and terminated by adding ice-cold buffer. Then the mixture is filtered with 0.7 μm syringe filter and washed three times. The radioactivity is determined by liquid scintillation spectrometry.
Radiolabeled binding assays were conducted using two different species. Compounds 1-9 were assayed using guinea pig brain membranes for the binding assays. Compounds 10-76 were assayed using human brain membranes for the binding assays.

Sprague Dawley rats [1] = experiment: Spinal nerve ligation (SNL) Chung model in rats, mechanical allodynia; assay type: in vivo, rat; conditions: two doses, von Frey
Description: (§2) Groups of 6 male Sprague Dawley rats weighing 160-200 grams were used. Prior to surgery and post-operatively, the animals were housed socially under constant temperature, humidity, and a 12-hour light-dark cycle. Following acclimation to the animal colony for 7 days, the rats were tested for mechanical allodynia and thermal hyperalgesia for baseline (pre-dose) values on Day −1. On Day 0, the animals were anesthetized with pentobarbital (50 mg/kg, i.p.). The left paraspinal muscles were separated from the spinous processes (L4-S2) and the L6-S1 facet joint was nipped. The transverse process of L6 was removed to allow for identifying the location of the L5 and L6 spinal nerves. The left L5-L6 spinal nerves were isolated and tightly ligated with 6.0 silk sutures. The rats are allowed to recover for 13 days.
Rats were tested for mechanical allodynia and thermal hyperalgesia following acclimation on Day −1 for baseline (pre-dose) values. Following the recovery period, the rats were tested to verify the mechanical allodynia on Day 13. […]
Mechanical allodynia: The mechanical allodynia is assessed by the manual von Frey test (Chaplan up/down method using von Frey filaments on the plantar surface of the CFA injected paw). […] Mechanical threshold (50% g threshold) is assessed using the up- and down-method following the procedure described by Chaplan (Chaplan et al., 1994, J Neurosci Methods 53:55-63).

Sprague Dawley rats [2] = experiment: Spinal nerve ligation (SNL) Chung model in rats, thermal hyperalgesia; assay type: in vivo, rat; conditions: two doses, Hargreaves method
Description: as §2
Following a four (4) day wash out “period”, the rats were tested in the thermal hyperalgesia test and randomized to balance treatment groups. On Day 19, the rats were administered vehicle, Compound 68 at two doses, or gabapentin 50 mg/kg, IP. At 15 and 75 minutes post-dose the thermal hyperalgesia is tested again.
Thermal hyperalgesia: Thermal hyperalgesia is measured by the Hargreaves method. […] The time is measured automatically when the paw is withdrawn away from the thermal stimulus. […]

S1R = target: T3, S1R (Cavia porcellus, UniProt Q60492); experiment: S1R radiolabeled binding assay, guinea pig whole brain, [3H]-pentazocine; conditions: guinea pig brain membranes (Compounds 1-9); read-out: S1R Ki
T3 construct: performed using Guinea pig whole brain according to the protocol previously reported; from tissue; host or cells: guinea pig whole brain membrane preparations
Description: Following 1 h incubation at 25° C., the binding assay was terminated by addition of cold buffer. The mixture was then filtered through Whatman GF/B filters and washed with cold buffer. Radioactivity was identified using the liquid scintillation counter.
Receptor binding data were analyzed by nonlinear regression of saturation and competition curves using the GraphPad Prism 7.0 software (GraphPad Software, La Jolla, Calif.).
as §1

Sprague-Dawley rats [3] = experiment: Rat rotarod test (motor incoordination); assay type: in vivo; conditions: i.p., male Sprague-Dawley rats
Description: Groups of 6 pre-selected male (Sprague-Dawley) rats weighing 180±20 g were included to the study motor coordination. Rats were trained on a rod at a continuous accelerating speed from 4 to 30 rpm/min during a time period of 4 minutes for at least 3 times before the study. Rats were randomly assigned to different groups with similar baseline.
Vehicle and test articles were administered by intraperitoneal (i.p.) injection. The rats were placed on the accelerating rotarod at 30, 60, 90 and 120 min post dosing, and the time (seconds) the rat remained on the rotarod was recorded.

Sprague-Dawley rats [4] = experiment: Rat formalin test; assay type: in vivo; conditions: 20 and 40 mg/kg, i.p., hind paw licking time
Description: One day after the rotarod test, vehicle and test articles were administered intraperitoneally again to groups of 6 Sprague-Dawley male rats weighting 180±20 g, 30 minutes prior to sub-plantar injection of formalin (0.05 ml, 2% solution). The hind paw licking time was recorded during a 0-35 min period at 5-min intervals after formalin challenge as a measure of analgesic activity of the test compound.

Sprague-Dawley rats [5] = experiment: Paclitaxel-induced cold hyperalgesia model in rats; assay type: in vivo, rat; conditions: i.p.
Description: (§3) Male Sprague-Dawley rats weighing 240+20 grams were employed. Paclitaxel (brand name TAXOL®, 2 mg/kg) is injected intraperitoneally (i.p.) on days 1, 3, 5 and 7 with a total cumulative dose of 8 mg/kg. During the course of the study, the animals were housed individually under constant temperature, humidity and a 12-hour light-dark cycle.
(§4) Test articles, vehicle and gabapentin were administered intraperitoneally on Days 14 or 21.
Cold hyperalgesia was assessed by the […] and measured prior to Paclitaxel injections (Day 0) and test article administration (Days 13 or 20) and at 0.5 hour after dosing of vehicle or test articles on Days 14 or 21. The animals were randomized to each groups based on pre-dose cold hyperalgesia values (Days 13 or 20). Test rat was placed in 2.5 cm depth of a 0-2° C. ice water bath in a Plexiglas arena 32×32 cm×27 cm high. Withdrawal latency of the left paw was recorded and averaged twice for cold hyperalgesia assessment. A 20 sec cut time was employed.

Sprague-Dawley rats [6] = experiment: Paclitaxel-induced mechanical allodynia model in rats; assay type: in vivo, rat; conditions: i.p., von Frey
Description: as §3, §4
Mechanical allodynia was assessed by the manual von Frey test and measured prior to Paclitaxel injections (Day 0) and test article administration (Days 13 or 20) and at 0.5 hour after dosing of vehicle or test articles on Days 14 or 21. The animals were randomized to each groups based on pre-dose mechanical allodynia values (Days 13 or 20). The animals were given 20 to 30 minutes to acclimatize prior to testing. The paw was touched with a series of 8 manual von Frey monofilaments with logarithmically incremental stiffness [3.61 (0.4 g), 3.84 (0.6 g), 4.08 (1.0 g), 4.31 (2.0 g), 4.56 (4.0 g), 4.74 (6.0 g), 4.93 (8.0 g), and 5.18 (15.0 g)]. […] Mechanical threshold (50% g threshold) was assessed using the up- and down-method following the procedure described by Chaplan, et al., 1994, J Neurosci Methods 53:55-63.

Sprague-Dawley rats [7] = experiment: STZ-induced mechanical allodynia model in diabetic rats; assay type: in vivo, rat; conditions: i.p., von Frey
Description: (§5) Male Sprague-Dawley rats weighing 225-250 grams were employed. Streptozotocin (STZ, 50 mg/kg) freshly dissolved in 0.9% sterile saline was injected intraperitoneally on day 0. Three days later, diabetes was confirmed by existence of blood glucose >350 mg/dL as measured by glucometer. Animal health was monitored biweekly for 14 days, at which point mechanical allodynia and thermal hyperalgesia were measured and confirmed. During the course of the study, the animals were housed individually under constant temperature, humidity and a 12-hour light-dark cycle. The animals were tested prior to study inclusion for mechanical allodynia and thermal hyperalgesia.
(§6) The behavioral assessments include mechanical allodynia and thermal hyperalgesia. Test articles, vehicle and gabapentin were administered intraperitoneally on Days 14 or 21.
Mechanical allodynia was assessed by the manual von Frey test and measured prior to STZ injections (Day 0). The animals were then randomized to each groups based on pre-dose mechanical allodynia values (Day 13 and Day 20). The mechanical allodynia test was performed again at 0.5 and 1.5 hours after vehicle, test article or gabapentin administration on Day 14. […] Mechanical threshold (50% g threshold) was assessed using the up- and down-method following the procedure described by Chaplan, et al., 1994, J Neurosci Methods 53:55-63).

Sprague-Dawley rats [8] = experiment: STZ-induced thermal hyperalgesia model in diabetic rats; assay type: in vivo, rat; conditions: i.p.
Description: as §5, §6
Thermal hyperalgesia: The animals were tested prior to study inclusion for thermal hyperalgesia on day 13 and Day 20. Thermal hyperalgesia was measured at 1 and 2 hours after dosing of vehicle or test article on Day 14 and Day 21 by using the IITC Model-336G (IITC INC. USA) apparatus. Each rat was placed within a plastic box atop a glass floor for 20 to 30 minutes. A light beam under the floor was aimed at the plantar surface of the left hind paw. The time was measured automatically when the paw was withdrawn away from the thermal stimulus. […]

CD-1 mice = experiment: Mouse tail flick test, potentiation of morphine analgesia; assay type: in vivo; conditions: mouse model of acute pain, n=8, i.p.; morphine SC
Description: Male young CD-1 mice (at the age of 7-8 weeks) were used for this study. Tail flick latency was determined using a lamp device (design derived from D'Amour & Smith, 1941, J. Pharmacol. Exp. Ther. 72(1):74-79). The behavioral endpoint was defined as a flick of the tail out of the path of the light. The intensity of the light was adjusted to provide a baseline response time of approximately 2-4 seconds. The light beam was focused approximately 4 cm from the tip of the tail. A cut off time of 20 seconds was used to prevent tissue damage. Mice received a single intra-peritoneal (IP) injection of either vehicle (saline) or test substance at appropriate doses followed immediately by a single sub-cutaneous (SC) administration of saline or Morphine at the appropriate dose for each group. Thirty minutes after the SC administration, the animals were gently restrained in a manner which allowed access to the tail and positioned beneath a light beam (D'Amour & Smith, 1941, J Pharmacol Exp Ther 72(1):74-79) with the tail aligned for measurement at approximately 4 cm from tail tip. The lamp device automatically timed each tail flick response once the tail was flicked away from the light beam by a sensor beneath the platform.

T1 sequence (Q99720 whole entry): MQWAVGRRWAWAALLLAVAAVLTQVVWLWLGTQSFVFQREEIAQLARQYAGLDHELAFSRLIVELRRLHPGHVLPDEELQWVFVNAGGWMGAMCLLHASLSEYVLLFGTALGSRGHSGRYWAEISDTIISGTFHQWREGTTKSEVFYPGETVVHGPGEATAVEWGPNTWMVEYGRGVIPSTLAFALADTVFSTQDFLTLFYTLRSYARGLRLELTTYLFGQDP
T3 sequence (Q60492 whole entry): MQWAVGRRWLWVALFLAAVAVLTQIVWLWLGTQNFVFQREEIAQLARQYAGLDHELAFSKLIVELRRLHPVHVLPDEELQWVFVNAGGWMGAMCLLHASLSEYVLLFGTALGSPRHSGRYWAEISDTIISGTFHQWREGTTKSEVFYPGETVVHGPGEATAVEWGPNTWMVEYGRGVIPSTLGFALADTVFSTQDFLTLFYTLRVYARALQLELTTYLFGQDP
T2 sequence (Q5BJF2 whole entry): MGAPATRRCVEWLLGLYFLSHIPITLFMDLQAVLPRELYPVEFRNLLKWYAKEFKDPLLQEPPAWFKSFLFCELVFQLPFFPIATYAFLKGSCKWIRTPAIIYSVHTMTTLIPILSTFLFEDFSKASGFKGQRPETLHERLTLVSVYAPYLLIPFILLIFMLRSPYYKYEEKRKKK

CC(C)n1nc(CN2CCC3(CC3)C2)nc1-c1ccc(C(C)(C)C)cc1 [Compound 68, 5-((5-(4-(tert-butyl)phenyl)-1-isopropyl-1H-1,2,4-triazol-3-yl)methyl)-5-azaspiro[2.4]heptane]
Ki (human S1R): 0.75 nM
Ki (human S2R): 360 nM
analgesic activity, mechanical allodynia in SNL Chung model (Sprague Dawley rats [1]): exhibits analgesic activity
analgesic activity, thermal hyperalgesia in SNL Chung model (Sprague Dawley rats [2]): exhibits analgesic activity

Cn1nc(CN2CCCC2)nc1-c1ccc(C(C)(C)C)cc1 [Compound 8, 5-(4-(tert-butyl)phenyl)-1-methyl-3-(pyrrolidin-1-ylmethyl)-1H-1,2,4-triazole]
Ki (S1R): 2.28 nM
motor incoordination effect in rat rotarod test (Sprague-Dawley rats [3]; 20 mg/kg): No motor incoordination effect
motor incoordination effect in rat rotarod test (Sprague-Dawley rats [3]; 40 mg/kg, t=60 min): very slight and temporary motor incoordination effect
analgesic activity in rat formalin test (Sprague-Dawley rats [4]): dose-dependent analgesic activity
analgesic activity, Paclitaxel-induced cold hyperalgesia (Sprague-Dawley rats [5]): exhibits analgesic activity
analgesic activity, Paclitaxel-induced mechanical allodynia (Sprague-Dawley rats [6]): exhibits analgesic activity
analgesic activity, STZ-induced mechanical allodynia (Sprague-Dawley rats [7]): exhibits analgesic activity
analgesic activity, STZ-induced thermal hyperalgesia (Sprague-Dawley rats [8]): exhibits analgesic activity
potentiation of morphine's analgesia, Tail Flick Test (CD-1 mice): potentiates morphine's analgesia
